Data set [1] addresses T1, human amylin receptor (calcitonin receptor co-expressed with receptor activity modifying protein, RAMP3) (hAMYR3) (Homo sapiens, UniProt O60896+P30988).
T1 construct: expressed in transfected cells
T1 sequence (P30988 25-474): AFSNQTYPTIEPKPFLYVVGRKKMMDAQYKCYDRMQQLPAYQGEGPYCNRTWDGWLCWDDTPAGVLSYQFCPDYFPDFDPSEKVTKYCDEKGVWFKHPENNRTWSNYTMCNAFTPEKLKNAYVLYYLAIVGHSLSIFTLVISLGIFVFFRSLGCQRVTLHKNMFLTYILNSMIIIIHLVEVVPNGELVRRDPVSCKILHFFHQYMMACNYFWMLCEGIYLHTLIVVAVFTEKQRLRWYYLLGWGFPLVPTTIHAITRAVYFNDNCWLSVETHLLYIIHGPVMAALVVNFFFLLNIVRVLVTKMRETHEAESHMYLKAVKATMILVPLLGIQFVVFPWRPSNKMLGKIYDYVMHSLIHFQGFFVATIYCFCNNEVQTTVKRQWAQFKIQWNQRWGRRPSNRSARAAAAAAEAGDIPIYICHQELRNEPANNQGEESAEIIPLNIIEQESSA
T1 sequence (O60896 24-148 partner): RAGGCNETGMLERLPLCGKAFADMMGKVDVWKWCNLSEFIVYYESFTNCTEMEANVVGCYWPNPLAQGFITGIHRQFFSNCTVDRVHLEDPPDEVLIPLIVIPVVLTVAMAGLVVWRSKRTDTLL
Briefly: cAMP production in 1321N1 cells with stable recombinant expression of human amylin receptor (hAMYR3). In kind it is cell-based. The following applies: for Ratio (selectivity hAMYR vs hCTR, ratio of EC50 values at the two receptors): EC50 hCTR / EC50 hAMYR3; for EC50: cAMP, 1321N1 cells, assay buffer with 0.1% BSA, read-out: EC50 (pM) hAMYR3. In a few lines: (§1)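 EC50 values come from 4-parameter logistic fits of HTRF cAMP signal, normalised to maximal calcitonin or amylin effect. Peptides were tested in duplicate for 30 min at RT in IBMX-containing (0.5 mM) BSA/HEPES buffer pH 7.4 on stable 1321N1 (human CTR, AMYR3) or HEK (rat CTR, AMYR3) lines.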

Data set [2] has as its target T2, rat amylin receptor (calcitonin receptor co-expressed with receptor activity modifying protein, RAMP3) (Rat AMYR3) (Rattus norvegicus, UniProt P32214+Q9JJ73).
T2 construct: expressed in transfected cells
T2 sequence (P32214 25-516): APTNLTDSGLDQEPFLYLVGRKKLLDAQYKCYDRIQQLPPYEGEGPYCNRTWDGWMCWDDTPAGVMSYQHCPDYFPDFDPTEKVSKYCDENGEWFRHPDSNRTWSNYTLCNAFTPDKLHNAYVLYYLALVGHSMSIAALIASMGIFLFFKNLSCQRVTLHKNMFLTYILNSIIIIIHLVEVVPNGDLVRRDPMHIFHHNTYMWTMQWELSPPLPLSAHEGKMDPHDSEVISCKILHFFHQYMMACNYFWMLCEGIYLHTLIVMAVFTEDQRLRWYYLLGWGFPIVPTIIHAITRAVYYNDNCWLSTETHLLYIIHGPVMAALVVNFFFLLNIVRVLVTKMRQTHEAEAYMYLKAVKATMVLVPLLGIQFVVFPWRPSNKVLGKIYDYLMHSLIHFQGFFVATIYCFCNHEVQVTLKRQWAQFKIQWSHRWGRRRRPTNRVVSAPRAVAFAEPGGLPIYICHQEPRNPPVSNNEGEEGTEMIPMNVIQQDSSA
T2 sequence (Q9JJ73 23-147 partner): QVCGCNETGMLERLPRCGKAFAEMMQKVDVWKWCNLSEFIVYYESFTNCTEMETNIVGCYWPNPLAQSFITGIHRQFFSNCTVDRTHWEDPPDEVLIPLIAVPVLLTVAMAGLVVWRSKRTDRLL
As to the kind of experiment: cAMP production in HEK cells with stable recombinant expression of rat amylin receptor (Rat AMYR3). In kind it is cell-based. The following applies: assay buffer with 0.1% BSA. The protocol: (§2) The functional activities of lipidated pramlintide analogue peptides, such as cAMP production, were tested in 1321N1 cell line with stable recombinant expression of human calcitonin receptor (hCTR) or human amylin receptor (calcitonin receptor co-expressed with receptor activity modifying protein, RAMP3) (hAMYR3) or HEK cells with stable recombinant expression of rat calcitonin receptor (rat CTR) or rat amylin receptor (calcitonin receptor co-expressed with receptor activity modifying protein, RAMP3) (Rat AMYR3).
(§3) Cryopreserved cell stock was thawed rapidly in a water-bath, suspended in assay buffer (0.1% BSA (Sigma # A3059) in HBSS (Sigma # H8264) with 25 mM HEPES, pH 7.4 and containing 0.5 mM IB MX (Sigma# 17018)) and spun at 240×g for 5 minutes. Cells were re-suspended in assay buffer at a batch-dependent optimized concentration (e.g. hCTR cells at 0.125×10^5 cells/mL, hAMYR3 cells at 0.125×10^5 cells/mL, rat CTR cells at 1x10^5 cells/mL, rat AMYR3 at 2×10^5 cells/mL).
(§4) The test peptide stock was prepared in DMSO and diluted in assay buffer to reach stated concentrations and transferred in duplicates into a 384-black shallow well microtitre assay plate (Corning # 3676). Cells were added to the assay plate, incubated at room temperature for 30 minutes and the cAMP level measured using cAMP dynamic 2 HTRF kit (Cisbio, Cat # 62AM4PEJ), following the two step protocol as per manufacturer's recommendations. The plates were read on an Envision (Perkin Elmer) using excitation wavelength of 320 nm and emission wavelengths of 620nm & 665 nm.
(§5) Data was transformed to % Delta F as described in the manufacturer's guidelines and analyzed as percent activation of maximal amylin or calcitonin effect by 4-parameter logistic fit to determine EC50 values. The selectivity of a peptide to hAMYR vs hCTR is defined as a ratio of EC50 values at the two receptors.
In general terms: Changes in cAMP serve as a functional read-out for many G protein-coupled receptors.

Another data set deals with lean rats. As to the kind of experiment: Rat acute food intake study. In kind it is in vivo. The following applies: lean male Sprague Dawley rats, 20 nmol/kg subcutaneously. The protocol:
Male Sprague Dawley rats were obtained from Taconic Denmark, ApS at approximately 7 weeks of age. Rats were implanted with a microchip for identification, housed 4/cage with enrichment, free access to food and water, and allowed one week acclimatisation while non-invasive characterization was performed. Rats were on a 12:12 light:dark cycle that switches at 1pm:1am. Food intake was monitored via the HM2 system (Lafayette Instrument) that allows for monitoring in a home cage. As each rat enters an access tunnel to feed, an IR beam is broken, and the implanted microchip is read. Resulting changes to food weight is then assigned to the specific animal. Social order has shown no impact to overall feeding patterns and amounts.
Rats were sorted into groups based on Day -1 body weight and 24-hour accumulated food intake (n=7 per group). On Day 0 rats were weighed, then fasted for 6 hours. Thirty (30) minutes prior to the reintroduction of food, rats were dosed subcutaneously (5 mL/kg) with 20 nmol/kg of test compound or 60 nmol/kg peptide 1 (pramlintide) diluted in an appropriate vehicle, after which food was returned, and lights went out. Automated food intake was monitored for the following 3 days, and rats were weighed once per day.
Food intake per rat was batched into 1-hour intervals and integrated into Gubra's GubraView data management system. Discrete food intake data was exported into MS Excel from which cumulative food intake data was generated. Cumulative food intake data was then transposed into GraphPad Prism (v8.0.1) for analysis of dark period feeding

Data set [3] addresses T3, human calcitonin receptor (hCTR) (Homo sapiens, UniProt P30988).
T3 construct: expressed in transfected cells
T3 sequence (P30988 25-474): T1 sequence (P30988 25-474)
As to the kind of experiment: cAMP production in 1321N1 cells with stable recombinant expression of human calcitonin receptor (hCTR). In kind it is cell-based. The following applies: cAMP, 1321N1 cells, assay buffer with 0.1% BSA; read-out: EC50 (pM) hCTR. In a few lines: as §1

The nature of data set [4]: Pharmacokinetic determination via IV and SC administration in Sprague Dawley rats. The following applies: male, rat, plasma, 20 nmol/kg.
Protocol: PK studies were performed to determine the half-life (T1/2) of test peptides. T1/2 describes the time taken for the maximum plasma concentration (Cmax) of a test substance to halve its steady-state concentration when in circulation.
Male SD rats were purchased from Si Bei Fu Laboratory Animal Technology Co. Ltd (China). The animals were 6-8 weeks old with body weights of 200-300 g on the dosing date. The animals were housed in a 12-hour light/12-hour dark cycle environment and were fasted overnight before dosing. The body weight of the animals were recorded before dosing, 24 h and 48 h post dosing . Animals had free access to food and drinks, and the food consumption was quantified every day.
Test articles were administered at 20 nmol/kg. Blood samples were collected from each animal via Jugular vein.
The blood samples were transferred into eppendorf low binding tube containing K2 EDTA. Above 0.150 mL blood were collected at each time point. Blood samples were centrifuged at 4,000 g for 5 minutes at 4° C. to obtain plasma. The plasma samples were stored frozen at −75±15° C. until analysis.
Concentrations of the test articles in the plasma samples were analyzed using a LC-MS/MS method. Data acquisition was performed by LabSolution version 5.89 software (Shimadzu, Kyoto, Japan). Data statistics were performed using Excel 97-2003 software. The pharmacokinetic parameters of test articles were calculated using a non-compartmental approach with Phoenix™ VVinNonlin® 6.1.
The following pharmacokinetic parameters were calculated, whenever possible from the plasma concentration versus time data: • IV administration: T1/2, C0, AUClast, AUCinf, MRTinf, Cl, Vss, Number of Points for Regression. • SC administration: Tmax, Cmax, AUClast, AUCinf, MRTinf, F, Number of Points for Regression.
Data set [5] has as its target T4, rat calcitonin receptor (rat CTR) (Rattus norvegicus, UniProt P32214).
T4 construct: expressed in transfected cells
T4 sequence (P32214 25-516): T2 sequence (P32214 25-516)
As to the kind of experiment: cAMP production in HEK cells with stable recombinant expression of rat calcitonin receptor (rat CTR). The following applies: assay buffer with 0.1% BSA. In kind it is cell-based. The protocol: as §2, §3, §4, §5

Data on 2 compounds can be found in patent US20240067693A1, “POLYPEPTIDES AND USES THEREOF” (MEDIMMUNE LIMITED, priority 2020, published 2024).

Structures are written as SMILES. Numbered stars: 1 amine (or outer) side, 2 acyl side, 3 side chain; on linkers, the order of the positions; unused ones are H or OH. Bridge positions count the residues as written; N and C are the ends. Square brackets hold non-standard residues; d marks the D form. Side chains are listed from the residue outwards. Peptide text beside a SMILES is read from it. * marks the point of attachment. C18 diacid = O=C(O)CCCCCCCCCCCCCCCCC(=O)*; γGlu = O=C(O)[C@H](CCC(=O)[*:2])N[*:1]; Aib = CC(C)(N)C(=O)O

What is called EC50 is the concentration at which the effect is half-maximal. For orientation: half-life means how long it takes for the measured level to halve. Low readings indicate rapid decline, high ones slow decline. `CC[C@H](C)[C@H](NC(=O)[C@@H]1CCCN1C(=O)CNC(=O)[C@H](Cc1ccccc1)NC(=O)[C@H](CC(N)=O)NC(=O)C(C)(C)NC(=O)[C@H](CO)NC(=O)[C@H](CO)NC(=O)[C@H](Cc1c[nH]cn1)NC(=O)[C@@H](NC(=O)[C@H](CC(C)C)NC(=O)[C@H](Cc1ccccc1)NC(=O)[C@H](CCC(=O)O)NC(=O)[C@H](C)NC(=O)[C@H](CC(C)C)NC(=O)[C@H](CCCNC(=N)N)NC(=O)[C@H](CCC(N)=O)NC(=O)[C@@H](NC(=O)[C@H](C)NC(=O)[C@@H]1CSSC[C@H](NC(=O)[C@H](CCCCN)NC(=O)[C@@H](N)CCCCNC(=O)CC[C@H](NC(=O)CCCCCCCCCCCCCCCCC(=O)O)C(=O)O)C(=O)N[C@@H](CC(N)=O)C(=O)N[C@@H]([C@@H](C)O)C(=O)N[C@@H](C)C(=O)N[C@@H]([C@@H](C)O)C(=O)N1)[C@@H](C)O)C(C)C)C(=O)N[C@@H](CC(C)C)C(=O)N1CCC[C@H]1C(=O)N1CCC[C@H]1C(=O)N[C@H](C(=O)N[C@@H](CC(N)=O)C(=O)N[C@H](C(=O)NCC(=O)N[C@@H](CO)C(=O)N[C@@H](CC(N)=O)C(=O)N[C@H](C(=O)N[C@@H](Cc1ccc(O)cc1)C(N)=O)[C@@H](C)O)C(C)C)[C@@H](C)O` [Peptide 38, K(γE-C18diacid)K[CNTATC]ATQRLAEFLVHSS(Aib)NFGPILPPTNVGSNTY-amide] (H-K([γGlu-C18 diacid])KCNTATCATQRLAEFLVHSS[Aib]NFGPILPPTNVGSNTY-NH2; disulfide 3-8; N-terminus assumed): the “Ratio (selectivity hAMYR vs hCTR, ratio of EC50 values at the two receptors)” value in data set [1] worked out at 6. The EC50 worked out at 190 pM in data set [1], 5.1 pM in data set [2], 1050 pM in data set [3] and 20.3 pM in data set [5]. In addition, the “Cummulative food intake (% vehicle treated intake) At 12 h” value in the data set on lean rats is listed as 6.9 % vehicle treated intake. For the same compound, the “Cummulative food intake (% vehicle treated intake) At 24 h” value with lean rats stood at 5.5 % vehicle treated intake. In the data set on lean rats, the “Cummulative food intake (% vehicle treated intake) At 48 h” value was determined as 13.7 % vehicle treated intake. The figures for the half-life in data set [4] (iv) and in data set [4] (sc) were 6.6 h and 9 h, respectively.
Consider `CC[C@H](C)[C@H](NC(=O)[C@@H]1CCCN1C(=O)CNC(=O)[C@H](Cc1ccccc1)NC(=O)[C@H](CC(N)=O)NC(=O)C(C)(C)NC(=O)[C@H](CO)NC(=O)[C@H](CO)NC(=O)[C@H](Cc1c[nH]cn1)NC(=O)[C@H](CCCNC(=N)N)NC(=O)[C@H](CC(C)C)NC(=O)[C@H](Cc1ccccc1)NC(=O)[C@H](CC(N)=O)NC(=O)[C@H](C)NC(=O)[C@H](CC(C)C)NC(=O)[C@H](CCCNC(=N)N)NC(=O)[C@H](CCC(N)=O)NC(=O)[C@@H](NC(=O)[C@H](C)NC(=O)[C@@H]1CSSC[C@H](NC(=O)[C@H](CCCCN)NC(=O)[C@@H](N)CCCCNC(=O)CC[C@H](NC(=O)CCCCCCCCCCCCCCCCC(=O)O)C(=O)O)C(=O)N[C@@H](CC(N)=O)C(=O)N[C@@H]([C@@H](C)O)C(=O)N[C@@H](C)C(=O)N[C@@H]([C@@H](C)O)C(=O)N1)[C@@H](C)O)C(=O)N[C@@H](CC(C)C)C(=O)N1CCC[C@H]1C(=O)N1CCC[C@H]1C(=O)N[C@H](C(=O)N[C@@H](CCC(=O)O)C(=O)N[C@H](C(=O)NCC(=O)N[C@@H](CO)C(=O)N[C@@H](CC(N)=O)C(=O)N[C@H](C(=O)N[C@@H](Cc1ccc(O)cc1)C(N)=O)[C@@H](C)O)C(C)C)[C@@H](C)O` [Peptide 43, K(γE-C18diacid)K[CNTATC]ATQRLANFLRHSS(Aib)NFGPILPPTEVGSNTY-amide] (H-K([γGlu-C18 diacid])KCNTATCATQRLANFLRHSS[Aib]NFGPILPPTEVGSNTY-NH2; disulfide 3-8; N-terminus assumed), for which the “Ratio (selectivity hAMYR vs hCTR, ratio of EC50 values at the two receptors)” value in data set [1] was 29. The EC50 turned out to be 647 pM in data set [1], 14.5 pM in data set [2], 19000 pM in data set [3] and 3650 pM in data set [5]. For the same compound, in the data set on lean rats, the “Cummulative food intake (% vehicle treated intake) At 12 h” value is 60.8 % vehicle treated intake. Moreover, the “Cummulative food intake (% vehicle treated intake) At 24 h” value with lean rats is recorded as 55.6 % vehicle treated intake. Besides, the “Cummulative food intake (% vehicle treated intake) At 48 h” value with lean rats was found to be 46.6 % vehicle treated intake. Further, the values for the half-life in data set [4] (iv) and in data set [4] (sc) were 9.3 h and 10 h, respectively.
